ChEMBL document CHEMBL1146917, “Discovery and structure-activity relationship of 2-phenyl-oxazole-4-carboxamide derivatives as potent apoptosis inducers” (Bioorg Med Chem Lett, 2006)
pEC50: −log10 of the molar value. ≈ marks a conversion by molar mass, not a printed value. Calls of active or inactive are those of the source. The rule behind the calls is not given here.

How the values were obtained:
DLD-1 [1] = experiment: Induction of apoptosis in human DLD1 cells assessed as activation of caspases by HTS assay; format: functional, cell-based
DLD-1 [2] = experiment: Growth inhibition of human DLD1 cells; format: functional
[3] = Solubility of the compound; format: physicochemical
DLD-1 [4] = experiment: Activity against DNA laddering in DLD1 cells at 1 uM after 48 hrs; format: functional, cell-based; settings: Homo sapiens
DLD-1 [5] = experiment: Inhibition of tumor growth in BALB/c nude mouse implanted with DLD1 cells at 50 mg/kg, ip, qd; format: functional; settings: DLD-1, ip
DLD-1 [6] = experiment: Activity against caspase-mediated PARP cleavage in human DLD1 cells at 1 uM after 48 hrs by Western blot analysis; format: functional, cell-based
DLD-1 [7] = experiment: Inhibition of tumor growth in BALB/c nude mouse implanted with DLD1 cells at 100 mg/kg, ip, qd; format: functional; settings: DLD-1, ip
DLD-1 [8] = experiment: Inhibition of tumor growth in BALB/c nude mouse implanted with DLD1 cells at 50 mg/kg, ip, bid; format: functional; settings: DLD-1, ip

`COC1CCN(C(=O)c2coc(-c3ccc(CNC(=O)Cc4ccccc4)cc3)n2)CC1` showed a pEC50 (DLD-1 [1]) of 5.28.

`O=C(Cc1ccccc1)NCc1ccc(-c2nc(C(=O)N3CCCCC3)co2)cc1` showed a GI50 (DLD-1 [2]) of 258 nM, a solubility [3] of 47 µM (≈ 19 µg/mL) and a pEC50 (DLD-1 [1]) of 7.19.

With `CC1CCCN(C(=O)c2coc(-c3ccc(CNC(=O)Cc4ccccc4)cc3)n2)C1` (stereo unspecified) the pEC50 (DLD-1 [1]) was 6.71.

For `O=C(Cc1ccc(Cl)cc1)NCc1ccc(-c2nc(C(=O)N3CCCCC3)co2)cc1`, the pEC50 (DLD-1 [1]) was 6.56.

`C[C@@H]1CC[C@H](C)N1C(=O)c1coc(-c2ccc(CNC(=O)Cc3ccccc3)cc2)n1` gave a pEC50 (DLD-1 [1]) of 7.47.

Work on `O=C(Cc1ccccc1F)NCc1ccc(-c2nc(C(=O)N3CCCCC3)co2)cc1` yielded a pEC50 (DLD-1 [1]) of 7.19.

In the case of `O=C(Cc1ccccc1)NCc1ccc(-c2nc(C(=O)N3CCC(Cl)CC3)co2)cc1`, the pEC50 (DLD-1 [1]) was 6.31.

`O=C(Cc1ccccc1)NCc1ccc(-c2nc(C(=O)N3CCC(O)CC3)co2)cc1` showed a pEC50 (DLD-1 [1]) of 6.82.

For `O=C(Cc1ccccc1O)NCc1ccc(-c2nc(C(=O)N3CCCCC3)co2)cc1`, the pEC50 (DLD-1 [1]) was 6.00.

`Cc1ccc(CC(=O)NCc2ccc(-c3nc(C(=O)N4CCCCC4)co3)cc2)cc1` gave a pEC50 (DLD-1 [1]) of 6.85.

`O=C(Cc1ccccc1)NCc1ccc(-c2nc(C(=O)N3CCCC(F)C3)co2)cc1` (stereo unspecified) gave a pEC50 (DLD-1 [1]) of 7.07.

With `O=C(Cc1ccccc1)NCc1ccc(-c2nc(C(=O)N3CCCC(O)C3)co2)cc1` (stereo unspecified) the pEC50 (DLD-1 [1]) was 6.71.

`CC1CCN(C(=O)c2coc(-c3ccc(CNC(=O)Cc4ccccc4)cc3)n2)CC1` showed a pEC50 (DLD-1 [1]) of 6.59.

In the case of `O=C1CCCN(C(=O)c2coc(-c3ccc(CNC(=O)Cc4ccccc4)cc3)n2)C1`, the pEC50 (DLD-1 [1]) was 6.63.

`O=C(Cc1ccccc1)NCc1ccc(-c2nc(C(=O)N3CCCC(Cl)C3)co2)cc1` (stereo unspecified) showed a pEC50 (DLD-1 [1]) of 6.92.

With `O=C(Cc1ccccc1)NCc1ccc(-c2nc(C(=O)N3CCCCCCC3)co2)cc1` the pEC50 (DLD-1 [1]) was 6.97.

For `O=C(Cc1ccc(F)cc1)NCc1ccc(-c2nc(C(=O)N3CCCCC3)co2)cc1`, the pEC50 (DLD-1 [1]) was 6.63.

In the case of `O=C(Cc1ccccc1)NCc1ccc(-c2nc(C(=O)N3CCC(CO)CC3)co2)cc1`, the pEC50 (DLD-1 [1]) was 6.71.

In the case of `O=C(Cc1ccc(O)cc1)NCc1ccc(-c2nc(C(=O)N3CCCCC3)co2)cc1`, the pEC50 (DLD-1 [1]) was 7.14.

`O=C(Cc1ccccc1)NCc1ccc(-c2nc(C(=O)N3CCC(F)(F)CC3)co2)cc1` showed a pEC50 (DLD-1 [1]) of 6.01.

With `O=C1CCN(C(=O)c2coc(-c3ccc(CNC(=O)Cc4ccccc4)cc3)n2)CC1` the pEC50 (DLD-1 [1]) was 6.94.

In the case of `O=C(Cc1ccccc1)NCc1ccc(-c2nc(C(=O)N3CCCC(F)(F)C3)co2)cc1`, the GI50 (DLD-1 [2]) was 15 nM, the solubility [3] was under 10 µM and the pEC50 (DLD-1 [1]) was 7.70.

With `O=C(Cc1cccc(F)c1)NCc1ccc(-c2nc(C(=O)N3CCCCC3)co2)cc1` the pEC50 (DLD-1 [1]) was 7.14.

`O=C(Cc1cccc(O)c1)NCc1ccc(-c2nc(C(=O)N3CCCCC3)co2)cc1` gave a pEC50 (DLD-1 [1]) of 6.86.

For `O=C(Cc1ccccc1)NCc1ccc(-c2nc(C(=O)N3CC4CC4C3)co2)cc1` (stereo unspecified), the pEC50 (DLD-1 [1]) was 6.50.

For `O=C(Cc1ccccc1)NCc1ccc(-c2nc(C(=O)N3CCC(F)CC3)co2)cc1`, the pEC50 (DLD-1 [1]) was 6.52.

In the case of `O=C(Cc1ccc(OC(F)(F)F)cc1)NCc1ccc(-c2nc(C(=O)N3CCCCC3)co2)cc1`, the Activity (DLD-1 [4]) was “Active”, the inhibition in vivo at 50 mg/kg (DLD-1 [5]) was 21% and the Activity (DLD-1 [6]) was “Active”. For the same molecule, the GI50 (DLD-1 [2]) was 229 nM, the solubility [3] was 44 µM (≈ 21.4 µg/mL) and the inhibition in vivo at 100 mg/kg (DLD-1 [7]) was 38%. It also gave a pEC50 (DLD-1 [1]) of 6.57 and an inhibition in vivo at 50 mg/kg (DLD-1 [8]) of 63%.

`O=C(Cc1ccccc1)NCc1ccc(-c2nc(C(=O)N3CC=CCC3)co2)cc1` gave a pEC50 (DLD-1 [1]) of 6.97.

Molecule `O=C(Cc1cccc(Cl)c1)NCc1ccc(-c2nc(C(=O)N3CCCCC3)co2)cc1` has a pEC50 (DLD-1 [1]) of 6.27.

Molecule `O=C(Cc1ccccc1)NCc1ccc(-c2nc(C(=O)N3CCCC3)co2)cc1` has a pEC50 (DLD-1 [1]) of 6.26.

Molecule `O=C(Cc1cccs1)NCc1ccc(-c2nc(C(=O)N3CCCCC3)co2)cc1` has a GI50 (DLD-1 [2]) of 75 nM, a solubility [3] of 29 µM (≈ 11.9 µg/mL) and a pEC50 (DLD-1 [1]) of 7.23.

In the case of `COC1CCCN(C(=O)c2coc(-c3ccc(CNC(=O)Cc4ccccc4)cc3)n2)C1` (stereo unspecified), the pEC50 (DLD-1 [1]) was 6.59.

With `O=C(Cc1ccccc1)NCc1ccc(-c2nc(C(=O)N3CCCCCC3)co2)cc1` the pEC50 (DLD-1 [1]) was 7.48.
